Reference: patent US9055745B2, “Compositions for internal and external insecticides, ovicides, repellents and wound healing” (Natureza, Inc., priority 2011, dated 2015)

How the values were obtained:
[1] = tested on: fleas; assay: Flea contact test using impregnated glass paper (Example XIII, FIG. 15, Table 13); type: in vivo; settings: for Mortality of the fleas: 200 μL on glass filter paper, after twenty-four hours, 12 fleas
Procedure: The fatty acids used in the test were mono laurin and lauric acid, while the fatty acid esters used in the test were methyl laurate, i.e. lauric acid methyl ester and ethyl dodecanoate, i.e. lauric acid ethyl ester. Each of these compounds were dissolved in ethanol in concentrations of 0.1% and 1%, and then 200 μL (micro liters) of each solution was placed on glass filter paper (15×150 mm). After the ethanol had evaporated a paper for each concentration of each compound was put into a test tube, and 12 fleas were added per test tube and the top of the test tube was covered. Whether the fleas were alive or dead at was measured after 2 and twenty-four hours. […] Further results are shown below in Table 13.

[2] = tested on: ctenocephalides felis; assay: Efficacy of fatty acid methyl esters in water or acetone on glass paper (Table 14); type: in vivo
Source text: Further results are shown below in Table 14, regarding the efficacy of various fatty acid methyl and ester esters against fleas (ctenocephalides felis).

Compound | 5 Hours Alive ([2]; 0.1% in Acetone) | 5 Hours Dead ([2]; 0.1% in Acetone) | 2 hours Alive ([2]; 0.1% in Acetone) | 2 hours Dead ([2]; 0.1% in Acetone) | 20 hours Alive ([2]; 0.1% in Acetone) | 20 hours Dead ([2]; 0.1% in Acetone) | 5 Hours Alive ([2]; 0.1% in Water) | 5 Hours Dead ([2]; 0.1% in Water) | 2 hours Alive ([2]; 0.1% in Water) | 2 hours Dead ([2]; 0.1% in Water) | 20 hours Alive ([2]; 0.1% in Water) | 20 hours Dead ([2]; 0.1% in Water) | 5 Hours Alive ([2]; 1% in Acetone) | 5 Hours Dead ([2]; 1% in Acetone) | 2 hours Alive ([2]; 1% in Acetone) | 2 hours Dead ([2]; 1% in Acetone) | 20 hours Alive ([2]; 1% in Acetone) | 20 hours Dead ([2]; 1% in Acetone) | 5 Hours Alive ([2]; 1% in Water) | 5 Hours Dead ([2]; 1% in Water) | further results
CO[C@H]1CO[C@H]2[C@@H]1OC[C@H]2OC [ISDE - 1% (benign base), isosorbide dimethyl ether] |  |  |  |  |  |  |  |  |  |  |  |  |  |  |  |  |  |  |  |  | % Killed ([1]; after 24 hours): 0%; 2 hours Alive ([1]; number of fleas, 2 hours): 12; 2 hours Dead ([1]; number of fleas, 2 hours): 0; 24 hours Alive ([1]; number of fleas, 24 hours): 12; 24 hours Dead ([1]; number of fleas, 24 hours): 0
CCCCCCCCCC(=O)OC [Methyl decanoate] | 12 | 0 | 12 | 0 | 12 | 0 | 11 | 0 | 11 | 0 | 11 | 0 | 14 | 0 | 14 | 0 | 14 | 0 | 19 | 0 | 2 hours Alive ([2]; 1% in Water): 19; 2 hours Dead ([2]; 1% in Water): 0; 20 hours Alive ([2]; 1% in Water): 19; 20 hours Dead ([2]; 1% in Water): 0
CCCCCCCCCCCC(=O)OC [Methyl laurate, lauric acid methyl ester] | 15 | 0 | 15 | 0 | 15 | 0 | 15 | 0 | 15 | 0 | 15 | 0 | 0 | 13 | 0 | 13 | 0 | 13 | 11 | 0 | Mortality of the fleas ([1]; 0.1% in ethanol): 100%; Mortality of the fleas ([1]; 1% in ethanol): 100%; 2 hours Alive ([2]; 1% in Water): 11; 2 hours Dead ([2]; 1% in Water): 0; 20 hours Alive ([2]; 1% in Water): 11; 20 hours Dead ([2]; 1% in Water): 0
CCCCCCCCC(=O)OC [Methyl nonanoate] | 14 | 0 | 14 | 0 | 14 | 0 | 12 | 0 | 12 | 0 | 12 | 0 | 9 | 0 | 9 | 0 | 9 | 0 | 14 | 0 | 2 hours Alive ([2]; 1% in Water): 14; 2 hours Dead ([2]; 1% in Water): 0; 20 hours Alive ([2]; 1% in Water): 14; 20 hours Dead ([2]; 1% in Water): 0
CCCCCCCC(=O)OC [Methyl octanoate] | 16 | 0 | 16 | 0 | 16 | 0 | 10 | 0 | 10 | 0 | 10 | 0 | 8 | 0 | 8 | 0 | 8 | 0 | 5 | 0 | 2 hours Alive ([2]; 1% in Water): 5; 2 hours Dead ([2]; 1% in Water): 0; 20 hours Alive ([2]; 1% in Water): 5; 20 hours Dead ([2]; 1% in Water): 0
CCCCCCCCCCCC(=O)OCC [lauric acid ethyl ester] |  |  |  |  |  |  |  |  |  |  |  |  |  |  |  |  |  |  |  |  | Mortality of the fleas ([1]; 0.1% in ethanol): 100%; Mortality of the fleas ([1]; 1% in ethanol): 100%
